Assay results as given in the supplement of paper PMC11451515.

Test system: NOMO1
Test: cell viability relative to DMSO control; higher = less cytotoxic
Conditions: 48 h
How it was run: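 Cells were incubated for 48 h at 37°C before CellTiter-Glo One luminescence was read. The cells were NOMO1 or SEM (500 cells/well) or P12-Ichikawa (1000 cells/well) leukemia cells, adapted for at least four passages in each medium and seeded in 1536-well plates (5 μl). Dosing used library compounds in DMSO applied by pin over 11 threefold points, 47 μM to 0.79 nM. Viability is the per-plate percentage of DMSO wells, with cell-free wells as background.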

[1] = HPLM + 10% dialyzed FBS, 0.000781 µM
[2] = HPLM + 10% dialyzed FBS, 0.00234 µM
[3] = HPLM + 10% dialyzed FBS, 0.00702 µM
[4] = HPLM + 10% dialyzed FBS, 0.0211 µM
[5] = HPLM + 10% dialyzed FBS, 0.0632 µM
[6] = HPLM + 10% dialyzed FBS, 0.19 µM
[7] = HPLM + 10% dialyzed FBS, 0.569 µM
[8] = HPLM + 10% dialyzed FBS, 1.71 µM
[9] = HPLM + 10% dialyzed FBS, 5.12 µM
[10] = HPLM + 10% dialyzed FBS, 15.4 µM
[11] = HPLM + 10% dialyzed FBS, 46.1 µM
[12] = RPMI 5 mM glucose + 10% FBS, 0.000781 µM
[13] = RPMI 5 mM glucose + 10% FBS, 0.00234 µM
[14] = RPMI 5 mM glucose + 10% FBS, 0.00702 µM
[15] = RPMI 5 mM glucose + 10% FBS, 0.0211 µM
[16] = RPMI 5 mM glucose + 10% FBS, 0.0632 µM
[17] = RPMI 5 mM glucose + 10% FBS, 0.19 µM
[18] = RPMI 5 mM glucose + 10% FBS, 0.569 µM
[19] = RPMI 5 mM glucose + 10% FBS, 1.71 µM
[20] = RPMI 5 mM glucose + 10% FBS, 5.12 µM
[21] = RPMI 5 mM glucose + 10% FBS, 15.4 µM
[22] = RPMI 5 mM glucose + 10% FBS, 46.1 µM
[23] = RPMI 5 mM glucose + 10% dialyzed FBS, 0.000781 µM
[24] = RPMI 5 mM glucose + 10% dialyzed FBS, 0.00234 µM
[25] = RPMI 5 mM glucose + 10% dialyzed FBS, 0.00702 µM
[26] = RPMI 5 mM glucose + 10% dialyzed FBS, 0.0211 µM
[27] = RPMI 5 mM glucose + 10% dialyzed FBS, 0.0632 µM
[28] = RPMI 5 mM glucose + 10% dialyzed FBS, 0.19 µM
[29] = RPMI 5 mM glucose + 10% dialyzed FBS, 0.569 µM
[30] = RPMI 5 mM glucose + 10% dialyzed FBS, 1.71 µM
[31] = RPMI 5 mM glucose + 10% dialyzed FBS, 5.12 µM
[32] = RPMI 5 mM glucose + 10% dialyzed FBS, 15.4 µM
[33] = RPMI 5 mM glucose + 10% dialyzed FBS, 46.1 µM

Structure (SMILES) | cell viability [1] | cell viability [2] | cell viability [3] | cell viability [4] | cell viability [5] | cell viability [6] | cell viability [7] | cell viability [8] | cell viability [9] | cell viability [10] | cell viability [11] | cell viability [12] | cell viability [13] | cell viability [14] | cell viability [15] | cell viability [16] | cell viability [17] | cell viability [18] | cell viability [19] | cell viability [20] | cell viability [21] | cell viability [22] | cell viability [23] | cell viability [24] | cell viability [25] | cell viability [26] | cell viability [27] | cell viability [28] | cell viability [29] | cell viability [30] | cell viability [31] | cell viability [32] | cell viability [33]
Nc1n[nH]c2nnc(-c3c(-c4ccccc4)nn4ccccc34)cc12 | 103% | 139% | 118% | 131% | 134% | 137% | 137% | 86.3% | 40.5% | 37.4% | 37.3% | 116% | 114% | 144% | 124% | 138% | 123% | 133% | 59% | 24% | 26.9% | 20.8% | 116% | 123% | 134% | 129% | 136% | 129% | 138% | 119% | 29.1% | 28% | 21.4%
C[C@H](NC(=O)Cc1cc(F)cc(F)c1)C(=O)N[C@H](C(=O)OC(C)(C)C)c1ccccc1 | 98.4% | 110% | 98.2% | 101% | 111% | 91.2% | 101% | 73.8% | 91.6% | 91.3% | 80.3% | 88.9% | 84.9% | 92.2% | 80.8% | 92% | 87.4% | 76.1% | 79.3% | 76.4% | 81.9% | 75.4% | 95.3% | 85.3% | 94% | 85.2% | 101% | 92.9% | 91.4% | 92.7% | 92.6% | 79.5% | 82.8%
O=C1NC(=O)/C(=C/c2ccc3nccnc3c2)S1 | 108% | 124% | 116% | 118% | 106% | 118% | 113% | 125% | 102% | 95.9% | 89.3% | 98.4% | 130% | 109% | 107% | 101% | 105% | 111% | 100% | 97.1% | 86.6% | 103% | 118% | 109% | 132% | 110% | 111% | 118% | 103% | 106% | 92.6% | 88.8% | 95.3%
CN1CCc2c(c3ccccc3n2Cc2ccc(C(=O)NO)cc2)C1 | 76% | 78.8% | 76.3% | 79.8% | 80% | 80.5% | 82.6% | 87.6% | 97.5% | 64.7% | 38.6% | 75.2% | 70.2% | 77.2% | 82.5% | 74.1% | 73.4% | 80.9% | 76.5% | 75.8% | 78.7% | 47.2% | 71.5% | 69.8% | 91.9% | 91.1% | 84.6% | 87.7% | 89.5% | 98% | 92.5% | 72.3% | 53.5%
NCCCC(N)(C(=O)O)C(F)F (stereo unspecified) | – | – | – | – | – | – | – | – | – | – | – | 123% | 137% | 122% | 125% | 132% | 111% | 125% | 120% | 109% | 107% | 95.1% | 121% | 112% | 115% | 113% | 126% | 112% | 108% | 125% | 100% | 111% | 90.1%
COc1cc2c(cc1OC)[C@@H]1Cc3ccc(OC)c(OC)c3CN1CC2 | 120% | 129% | 115% | 105% | 118% | 110% | 112% | 117% | 114% | 99.4% | 31.2% | 98.1% | 101% | 94.8% | 97.1% | 106% | 104% | 97.6% | 101% | 102% | 92.7% | 34.3% | 112% | 114% | 116% | 107% | 96.5% | 109% | 95.6% | 97.8% | 106% | 103% | 56%
CC1(C)SCCN([S+](=O)([O-])c2ccc(OCC#CCO)cc2)[C@H]1C(=O)NO | 121% | 108% | 102% | 101% | 124% | 126% | 115% | 112% | 99.6% | 107% | 83.7% | 105% | 88.3% | 99.4% | 95.8% | 104% | 93% | 93.9% | 87.5% | 77.5% | 77.4% | 82.4% | 96.3% | 94.8% | 103% | 90.2% | 89.7% | 98.5% | 84.1% | 94.3% | 97.3% | 95.6% | 93.3%
COc1ccc(F)c(F)c1C(=O)c1cnc(NC2CCN([S+](C)(=O)[O-])CC2)nc1N | 106% | 135% | 123% | 117% | 119% | 124% | 118% | 93.6% | 45.6% | 7.59% | 3.32% | 104% | 118% | 103% | 102% | 109% | 109% | 100% | 98.9% | 46.3% | 15.1% | 3.38% | 105% | 101% | 102% | 106% | 107% | 102% | 83.8% | 90% | 54.1% | 15% | 2.57%
CC1(C)CC\C2=C(/O1)C3=C(C=CC=C3)C(=O)C2=O | 123% | 112% | 113% | 101% | 112% | 104% | 103% | 118% | 99% | 98.4% | 4.14% | 113% | 104% | 115% | 103% | 108% | 111% | 90.9% | 107% | 108% | 88.2% | 5.12% | 109% | 97.4% | 109% | 113% | 103% | 102% | 101% | 99.9% | 100% | 96.3% | 6.57%
CCC(CCCC)COC(=O)C(\C#N)=C(\c1ccccc1)c2ccccc2 (stereo unspecified) | 76.5% | 102% | 84% | 117% | 101% | 101% | 98.5% | 92.8% | 107% | 98.5% | 107% | 92.6% | 91.8% | 86.2% | 101% | 101% | 93% | 92.5% | 104% | 97.8% | 109% | 105% | 87.4% | 85.8% | 84.4% | 94.6% | 94% | 91.7% | 90.4% | 91.5% | 89.1% | 87.2% | 96.2%
CC(C)C1CCC(C(=O)N[C@H](Cc2ccccc2)C(=O)O)CC1 (stereo partly specified) | 87.3% | 100% | 75.4% | 90.4% | 89.9% | 84.5% | 81.4% | 88.6% | 78% | 76.4% | 91.4% | 93.5% | 88.5% | 91.8% | 89.7% | 92.2% | 91.6% | 85.1% | 80.7% | 84.2% | 81.4% | 84.6% | 92.2% | 96.9% | 98.9% | 94.4% | 92% | 94.8% | 100% | 82.6% | 101% | 82.8% | 92.3%
OC(=O)\C1=C\N(C2CC2)C3=CC(=C(F)C=C3C1=O)N4CCNCC4 | 108% | 117% | 119% | 129% | 113% | 127% | 118% | 134% | 64.4% | 47.5% | 22.5% | 116% | 126% | 104% | 118% | 119% | 113% | 128% | 118% | 90% | 75.1% | 23.5% | 112% | 132% | 119% | 116% | 120% | 122% | 117% | 123% | 88.1% | 63.5% | 33.9%
Cc1cc(Nc2cc(N3CCN(C)CC3)nc(/C=C/c3ccccc3)n2)n[nH]1 | 111% | 122% | 117% | 122% | 135% | 114% | 130% | 53.7% | 14.8% | 5.4% | 5.88% | 106% | 98.4% | 110% | 112% | 115% | 123% | 100% | 47.6% | 13.3% | 4.18% | 3.81% | 108% | 104% | 111% | 104% | 110% | 114% | 105% | 56.3% | 24.2% | 7.24% | 5%
Nc1ccc(C(=O)c2cc3c(ccc4ccccc43)[nH]2)cc1 | 120% | 121% | 123% | 129% | 113% | 112% | 117% | 110% | 89.5% | 40.5% | 26.6% | 118% | 112% | 110% | 117% | 121% | 116% | 101% | 109% | 99.2% | 56.4% | 18.9% | – | – | – | – | – | – | – | – | – | – | –
O=C(O)CCCCCC(=O)NN=C1CCCC1 | 99.6% | 96% | 116% | 122% | 107% | 120% | 126% | 132% | 122% | 130% | 133% | 105% | 111% | 111% | 112% | 102% | 100% | 112% | 103% | 116% | 123% | 129% | 91.2% | 92.8% | 97.9% | 110% | 105% | 115% | 96.6% | 109% | 118% | 121% | 103%
CO[C@H]1CCC(O[C@H]2C[C@H]([C@]3(C)CC[C@]4(C[C@H](O)[C@@H](C)[C@@H]([C@@H](C)/C=C(\C)C(=O)[C@H](C)C[C@H](C)C(=O)[O-])O4)O3)O[C@]3(O[C@@H]([C@H]4O[C@@](O)(CO)[C@H](C)C[C@@H]4C)C[C@@H]3C)[C@@H]2C)O[C@@H]1C (stereo partly specified) | 112% | 124% | 136% | 109% | 134% | 101% | 118% | 88.8% | 84.4% | 63.7% | 55.1% | 123% | 121% | 113% | 122% | 145% | 121% | 124% | 118% | 111% | 97.6% | 67.7% | 112% | 122% | 133% | 118% | 111% | 114% | 132% | 106% | 48.9% | 78.2% | 64.2%
